According to patent US10765657B2, “Selamectin for treatment of sea lice infestations” (priority 2013, dated 2020):

Experiments:
[1] = system: naïve sea lice; experiment: Prophylactic efficacy of medicated feed against sea lice challenge in fish; type: in vivo
Procedure: Experimental diets containing selamectin were administered to 15×2 m diameter tanks of 75 fish by voluntary feeding from Day 0 to Day 6. […] The study evaluated the three concentrations of test material in comparison to a negative control (placebo) and a positive control. Each group was run as triplicate tanks. In each group, sea lice were evaluated using a representative sample of 5 fish per tank on Day −1 (pre-treatment) and 10 fish per tank on days 10 and 30 (4 and 24 days post-treatment).
The prophylactic effect of treatment was determined by removing lice and using further sea lice challenges at intervals. All adult lice were removed from remaining fish following Day 30 and a further sea lice challenge took place on Day 37 (31 days post treatment) and lice counts and tissue samples taken from 10 fish per tank on Day 60 (53 days post treatment).
All adult lice were removed from remaining fish following Day 64 and 12 fish per tank were moved to 15×1 m diameter tanks. On Day 67 (61 days post-treatment) the fish in these 1 m tanks received a further sea lice challenge and on Day 90 (84 days post-treatment) lice counts and tissue samples were taken from 10 fish per tank.
On Day 76 (70 days post-treatment) the fish remaining in 2 m tanks received a further naïve sea lice challenge and on Day 99 (93 days post-treatment) lice counts and tissue samples were taken from 10 fish per tank.

[2] = system: naïve sea lice, Lepeophtheirus salmonis; experiment: Static 24 hour sea lice bioassay, naïve strain; conditions: 24 hours exposure, 0.2% DMSO in seawater, about 10-12° C.
[3] = system: emamectin benzoate resistant sea lice, Lepeophtheirus salmonis; experiment: Static 24 hour sea lice bioassay, emamectin benzoate resistant strain; conditions: 24 hours exposure, 0.2% DMSO in seawater, about 10-12° C.

| Compound | prophylactic efficacy ([1]; 40 μg/kg/day oral in feed, Day 0 to Day 6, at 4.4 weeks) | prophylactic efficacy ([1]; 40 μg/kg/day oral in feed, Day 0 to Day 6, at 10 weeks) | prophylactic efficacy ([1]; 160 μg/kg/day oral in feed, Day 0 to Day 6, at 4.4 weeks) | prophylactic efficacy ([1]; 160 μg/kg/day oral in feed, Day 0 to Day 6, out to 10 weeks) | Adult females EC50 [2] | Adult males EC50 [2] | Adult females EC50 [3] | Adult males EC50 [3] | prophylactic efficacy ([1]; 50 μg/kg/day (commercially licensed value) oral in feed, at 4.4 weeks) | prophylactic efficacy ([1]; 50 μg/kg/day (commercially licensed value) oral in feed, out to 10 weeks) |
| --- | --- | --- | --- | --- | --- | --- | --- | --- | --- | --- |
| CO[C@H]1C[C@H](O[C@@H]2/C(C)=C/C[C@@H]3C[C@@H](C[C@]4(CC[C@H](C)[C@@H](C5CCCCC5)O4)O3)OC(=O)[C@@H]3C=C(C)/C(=N/O)[C@H]4OC/C(=C\C=C\[C@@H]2C)[C@]43O)O[C@@H](C)[C@@H]1O [Selamectin, selamectin] | 99.6% | 68.4% | 100% | 98.5% | 10.68 ppb | 3.21 ppb | 16.91 ppb | 6.95 ppb | – | – |
| emamectin benzoate | – | – | – | – | 29 ppb | 112 ppb | 65 ppb | 202 ppb | 100% | 72.9% |
